# In paper PMC5808360, “Neutral Porphyrin Derivative Exerts Anticancer Activity by Targeting Cellular Topoisomerase I (Top1) and Promotes Apoptotic Cell Death without Stabilizing Top1-DNA Cleavage Complexes” (Journal of Medicinal Chemistry, 2017):
# Where two headings read alike, the source gives them in different places.
# Columns and labels:
# [1] = system: relaxed pBS (SK+) plasmid DNA; experiment: Topoisomerase I unwinding assay (DNA intercalation); settings: m-AMSA and etoposide 50 and 300 μM; compound 8 50, 100, 300 μM
# Procedure: Therefore, compound 8 interacts in reversible manner with Top1 to inhibit the plasmid relaxation activity (Figure 1).
# The competence of the drug to intercalate into plasmid DNA was determined by Top1 unwinding assay.[36],[44] Assays were performed with 50 fmol of pBluscript (SK+) DNA in the presence or absence of compound 8, m-AMSA, and etoposide at indicated concentrations. Excess of DNA topoisomerase I was reacted with supercoiled plasmid DNA to generate relaxed DNA for the unwinding assays. The relaxed DNA was purified by proteolytic digestion with proteinase K at 37 °C, followed by phenol/chloroform extraction and ethanol precipitation. The unwinding assays were carried out at 37 °C for 15 min with independent compounds and were analyzed by 1% agarose gel as described above.
# [2] = system: mouse embryonic fibroblasts (MEFs); experiment: Cell survival (MTT) assay, MEFs (TDP1+/+ and TDP1-/-); format: cell-based
# Excerpt: (§1) Compound 8 was investigated for its cytotoxicity in the cancer cell lines from different tissue origin,[6],[41] as well as in the noncancerous human embryonic kidney cell lines (HEK293) and mouse embryonic fibroblasts (MEFs). […] The MCF7 breast cancer cell lines were most susceptible to compound 8.
# (§2) Human cancerous cell lines like MCF7, HeLa, HCT116, NIH:OVCAR-3, and HEK293 were obtained from the Developmental Therapeutics Program as kind gift from Dr. Yves Pommier (NIH/NCI/USA). TDP1^+/+ and TDP1^–/– primary MEF cells were kind gift from Dr. Cornelius F. Boerkoel (University of British Columbia, Canada) and were cultured as described previously.[6],[36],[40],[42] Plasmid DNAs were transfected with Lipofectamine 2000 (Invitrogen) according to the manufacturer’s protocol.
# (§3) Cell survival was assessed by 3-(4,5-dimethylthiazol-2-yl)-2,5-diphenyltetrazolium bromide (MTT) assay as discussed previously.[6] The percent inhibition of viability for each concentration of the compounds was calculated with respect to the control, and IC50 values were estimated.
# [3] = as above; format: cell-based, mouse; settings: mouse, read-out: IC50 cytotoxicity
# Excerpt: as §1, §2, §3
# [4] = molecular target: T1, cellular Top1 in MCF7 cells (Homo sapiens, UniProt P11387); experiment: Western blot of Top1 in whole cell extracts of treated MCF7 cells; format: cell-based; settings: 10 μM, indicated times
# T1 construct: endogenous in cells; host or cells: MCF7 cells
# T1 sequence (P11387 2-765 limits assumed): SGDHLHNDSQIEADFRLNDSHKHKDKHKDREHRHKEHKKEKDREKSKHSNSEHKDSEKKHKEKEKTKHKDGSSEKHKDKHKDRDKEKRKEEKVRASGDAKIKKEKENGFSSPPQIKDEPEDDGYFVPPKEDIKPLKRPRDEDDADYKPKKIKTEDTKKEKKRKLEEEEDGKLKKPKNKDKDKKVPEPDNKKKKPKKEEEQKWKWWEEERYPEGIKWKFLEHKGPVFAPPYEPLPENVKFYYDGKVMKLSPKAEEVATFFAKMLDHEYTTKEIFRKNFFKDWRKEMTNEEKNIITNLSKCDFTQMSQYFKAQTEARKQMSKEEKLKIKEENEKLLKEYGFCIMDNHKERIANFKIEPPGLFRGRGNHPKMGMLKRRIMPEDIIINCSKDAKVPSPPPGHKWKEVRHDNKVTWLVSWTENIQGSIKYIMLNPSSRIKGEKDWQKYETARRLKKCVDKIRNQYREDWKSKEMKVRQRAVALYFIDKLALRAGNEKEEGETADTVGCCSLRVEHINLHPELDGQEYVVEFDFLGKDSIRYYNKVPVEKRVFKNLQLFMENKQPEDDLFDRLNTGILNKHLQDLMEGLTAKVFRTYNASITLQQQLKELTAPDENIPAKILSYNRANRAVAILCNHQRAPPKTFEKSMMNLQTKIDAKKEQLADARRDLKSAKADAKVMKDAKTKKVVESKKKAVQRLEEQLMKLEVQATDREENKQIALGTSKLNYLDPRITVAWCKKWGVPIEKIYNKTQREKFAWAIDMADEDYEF
# Procedure: Because compound 8 binds with free Top1 (Figure 3) and inhibits Top1cc formation in live cells (Figure 2E), we examined the impact of compound 8 on endogenous Top1. Cellular lysates were prepared from MCF7 cells treated with compound 8 for indicated times and were analyzed by Western blotting. […] Because proteasome has been implicated for Top1 degradation,[7],[9],[45] we used proteasome specific inhibitor (MG132) to investigate Top1 proteolysis in compound 8 treated cells.
# Preparation of whole cell extracts from MCF7 cells and immunoblotting were carried out as described.[6],[40],[41] Immunoreactivity was detected using ECL chemiluminescence reaction (Amersham) under ChemiDoc MP system (Bio-Rad, USA).
# Top1cc in MCF7 cells = molecular target: T2, Top1cc in MCF7 cells (Homo sapiens, UniProt P11387); experiment: Immuno complex of enzyme (ICE) bioassay; format: cell-based
# T2 construct: endogenous in cells; host or cells: MCF7 cells
# T2 sequence (P11387 2-765 limits assumed): T1 sequence (P11387 2-765 limits assumed)
# Procedure: Because compound 8 stimulates apoptosis (Figure 4C and Figure 5B), we examined accumulation of apoptotic Top1-DNA complexes in compound 8 treated cells (Figure 4D) by ICE bioassays.[15],[16] Top1cc related to apoptosis is due to secondary DNA modifications and is independent from direct Top1-drug interaction.[15]−[17] […] Therefore, proteasome mediated degradation of Top1 triggers compound 8 induced apoptosis without stabilizing apoptotic Top1-DNA covalent complexes. […] Genomic DNA was prepared and was briefly sonicated. Varying concentrations of DNA were spotted onto nitrocellulose membrane (Millipore, USA) using a slot-blot vacuum system (Biorad, USA). Immunoblotting was carried out with antihuman Top1 antibodies as described.[41]
structure (smiles),measurement,setting,value
"CN(C)c1ccc(-c2c3nc(c(-c4ccc(N(C)C)cc4)c4ccc([nH]4)c(-c4ccc(C(=O)O)cc4)c4nc(c(-c5ccc(C(=O)O)cc5)c5ccc2[nH]5)C=C4)C=C3)cc1 [Compound 8, 5,10-Bis(4-carboxyphenyl)-15,20-bis(4-dimethylaminophenyl)porphyrin]",Negative supercoiling of relaxed plasmid DNA (intercalation),[1],failed to induce negative supercoiling of the relaxed plasmid DNA
same,Sensitivity of TDP–/– versus TDP1+/+ MEFs cells,[2],equally sensitive
same,IC50,"[3]; TDP1+/+ primary mouse embryonic fibroblasts (MEFs), TDP1+/+ MEFs",> 10 µM
same,IC50,"[3]; TDP1-/- primary mouse embryonic fibroblasts (MEFs), TDP1-/- MEFs",> 10 µM
same,IC50,"[3]; mouse embryonic fibroblasts (MEFs), MEFs, noncancerous",> 10 µM
same,Top1 signal in Western blot,[4],time dependent depletion of Top1 signal
same,Top1 in DNA-containing fractions (apoptotic Top1cc),"Top1cc in MCF7 cells; 20 μM, 12 h",absence of Top1 in the DNA-containing fractions
same,Effect on CPT-induced cellular Top1-DNA complexes,Top1cc in MCF7 cells; CPT 10 μM 6 h before addition of compound 8 20 μM for 6 h,abrogates CPT-induced cellular Top1-DNA complexes
